Results from patent US4731109A, “Herbicidal 2-haloacetanilides” (Monsanto Company, priority 1982, dated 1988).
Read-outs that look alike come from different tables or passages of the source.

Legend:
Assay type in all cases: in vivo
[1] = system: Barnyardgrass; assay: Resistance to leaching and resulting herbicidal efficacy; conditions: for inhibition at 140 g/ha / inhibition at 560 g/ha / inhibition at 2200 g/ha: Echinochloa crus-galli, read-out: Percent Inhibition
Protocol: Laboratory tests were conducted to determine the resistance of herbicides according to this invention to leaching into the soil and resulting herbicidal efficacy. […] The pots containing the treated soil were subjected to leaching by placing on a turntable which rotated under two nozzle tips of a water container calibrated to deliver one inch (2.5 cm) of water per hour simulating rainfall. Leaching rates were adjusted by varying the amount of time on the turntable. Water was delivered to the soil in the pots and allowed to percolate through the filter paper and drainage holes. The pots were then allowed to sit for three days at ambient room temperature. The treated soil in the pots was then removed, crumbled and placed as a surface layer on top of other pots containing the above soils seeded with barnyardgrass seeds. The pots were then placed on greenhouse benches, sub-irrigated and allowed to grow for 2-3 weeks. Visual ratings of percent growth inhibition compared to control (untreated) pots and fresh weights for barnyardgrass were recorded; the data from the control represents six replications and that for the test compounds three replications; test data are shown in Table XVIII.

[2] = system: cotton; assay: Greenhouse pre-emergence GR15/GR85 selectivity test; conditions: Table XII
Excerpt: (§1) A good grade of top soil is placed in aluminum pans and compacted to a depth of three-eighths to one-half inch from the top of the pan. On the top of the soil is placed a number of seeds or vegetative propagules of various plant species. The soil required to level fill the pans after seeding or adding vegetative propagules is weighed into a pan. The soil and a known amount of the active ingredient applied in a solvent or as a wettable powder suspension are thoroughly mixed, and used to cover the prepared pans. After treatment, the pans are given an initial overhead irrigation of eater, equivalent to one-fourth inch (0.64 cm) rainfall, then watered by subirrigation as need to give adequate moisture for germination and growth. As an alternative procedure, the overhead irrigation may be omitted. Observations are made about 2-3 weeks after seeding and treatment.
(§2) In the discussion and tables of data below, reference is made to herbicide application rates symbolized as "GR15 " and "GR85 "; these rates are given in kilograms per hectare (kg/ha) which are convertible into pounds per acre (lbs/A) by dividing the kg/ha rate by 1.12.
(§3) A further guide to the effectiveness of a chemical as a selective herbicide is the "selectivity factor" ("SF") for a herbicide in given crops and weeds. The selectivity factor is a measure of the relative degree of crop safety and weed injury and is expressed in terms of the GR15 /GR85 ratio, i.e., the GR15 rate for the crop divided by the GR85 rate for the weed, both rates in kg/ha (lb/A). In the tables below, selectivity factors are shown in parenthesis following the GR85 rate for each weed; the symbol "NS" indicates "non-selective". Marginal or undetermined selectivity is indicated by a dash (--).
(§4) Additionally, pre-emergence herbicidal data from other tests have established that compounds according to this invention also selectively suppress quackgrass, yellow nutsedge and/or other weeds in one or more of the crops cotton, peanuts, bush beans and/or rape. For example, in Table VI are presented data showing the herbicidal selectivity of the compounds of Examples 1 and 2 against quackgrass in rape and snap beans. Unless otherwise noted; greenhouse tests in Table VI and in other tables below involved herbicide treatments by soil incorporation and an initial overhead irrigation followed by subirrigation as described above.
In one multi-crop test in the greenhouse, the compounds of Examples 1, 9, and 10 were tested against yellow nutsedge in cotton, soybeans, corn and rice; each compound was non-selective with respect to yellow nutsedge in rice. However, markedly high selectivities for yellow nutsedge in cotton, soybeans and corn were shown for each of the compounds in the test; the respective GR15 and GR85 rates for these compounds are shown in Table XII selectivity factors are shown in parenthesis after each crop.

[3] = system: purple nutsedge; assay: as above
Excerpt: as §1, §2, §3, §4
In other greenhouse tests, compounds according to this invention have shown selective control of a variety of annual and perennial weeds in various crops. As further illustrative, the compound of Example 1 selectively controlled purple nutsedge in both corn nd soybeans, the respective crop/weed GR15 /GR85 ratios (expressed in kg/ha) being 0.67/0.25 (S.F.=2.7) in corn and 1.1/0.25 (S.F.=4.5) in soybeans. The compound of Example 8 has shown selective control of yellow nutsedge and quackgrass in corn and soybeans. The respective crop/yellownutsedge GR15 /GR85 ratios being >2.2/0.95 (S.F.=2.5) in corn; 2.2/0.5 (SF=4.5) in soybeans and the respective GR15 /GR85 ratios for both corn and soybeans in quackgrass being >2.2/0.5 (S.F.=4.5). In a test against yellow nutsedge in cotton, the GR15 /GR85 ratio (average of two replicates) was 2.0/0.95 (S.F.=2).
In another greenhouse test, the compounds of Examples 3-5, 9 and 10 were tested for their herbicidal efficacy against a variety of resistant annual and perennial weeds in rape.

[4] = system: soybeans; assay: Herbicidal effect in a variety of soil types
[5] = system: redroot pigweed; assay: Greenhouse pre-emergence GR15/GR85 selectivity test; conditions: Table XV
In short: (§5)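 Pre-emergence soil-incorporation test: seeded pans were covered with topsoil mixed with active ingredient (in solvent or as wettable powder), overhead-irrigated (0.64 cm) or not, then subirrigated. Plants were scored about 2-3 weeks after treatment. GR15/GR85 rates are in kg/ha, and selectivity factor is crop GR15 divided by weed GR85.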

[6] = system: common ragweed; assay: as above; conditions: Table XV
In short: as §5

[7] = system: common purslane; assay: as above; conditions: Table XV
In short: as §5

[8] = system: prickly sida; assay: as above; conditions: Table XV
In short: as §5

[9] = Drummer silt clay, 0.14 Kg/Ha, rain 0 cm
[10] = Drummer silt clay, 0.14 Kg/Ha, rain 1.27 cm
[11] = Drummer silt clay, 0.14 Kg/Ha, rain 5.08 cm
[12] = Drummer silt clay, 0.56 Kg/Ha, rain 0 cm
[13] = Drummer silt clay, 0.56 Kg/Ha, rain 1.27 cm
[14] = Drummer silt clay, 0.56 Kg/Ha, rain 5.08 cm
[15] = Drummer silt clay, 0.56 Kg/Ha, rain 10.16 cm
[16] = Drummer silt clay, 2.2 Kg/Ha, rain 0 cm
[17] = Drummer silt clay, 2.2 Kg/Ha, rain 1.27 cm
[18] = Drummer silt clay, 2.2 Kg/Ha, rain 5.08 cm
[19] = Drummer silt clay, 2.2 Kg/Ha, rain 10.16 cm
[20] = Ray silt loam, 0.14 Kg/Ha, rain 0 cm
[21] = Ray silt loam, 0.14 Kg/Ha, rain 1.27 cm
[22] = Ray silt loam, 0.14 Kg/Ha, rain 5.08 cm
[23] = Ray silt loam, 0.56 Kg/Ha, rain 0 cm
[24] = Ray silt loam, 0.56 Kg/Ha, rain 1.27 cm
[25] = Ray silt loam, 0.56 Kg/Ha, rain 5.08 cm
[26] = Ray silt loam, 0.56 Kg/Ha, rain 10.16 cm
[27] = Ray silt loam, 2.2 Kg/Ha, rain 0 cm
[28] = Ray silt loam, 2.2 Kg/Ha, rain 1.27 cm
[29] = Ray silt loam, 2.2 Kg/Ha, rain 5.08 cm
[30] = Ray silt loam, 2.2 Kg/Ha, rain 10.16 cm
[31] = Ray silt loam, 0.14 Kg/Ha, rain 10.16 cm
[32] = Drummer silty clay, Table XVII B
[33] = Wabash silty clay, Table XVII B
[34] = Ray silt loam, 0.14 Kg/Ha, rain 10.61 cm

Structure (SMILES): CCOCN(C(=O)CCl)c1c(C)cccc1C(F)(F)F [Example 1, N-(ethoxymethyl)-2'-trifluoromethyl-6'-methyl-2-chloroacetanilide]
- inhibition at 140 g/ha [1, 9]: 100%
- inhibition at 140 g/ha [1, 10]: 97%
- inhibition at 140 g/ha [1, 11]: 95%
- inhibition at 140 g/ha ([1]; Drummer silt clay, 0.14 Kg/Ha, rain 10.16 cm): 20%
- inhibition at 560 g/ha [1, 12]: 100%
- inhibition at 560 g/ha [1, 13]: 100%
- inhibition at 560 g/ha [1, 14]: 100%
- inhibition at 560 g/ha [1, 15]: 100%
- inhibition at 2200 g/ha [1, 16]: 100%
- inhibition at 2200 g/ha [1, 17]: 100%
- inhibition at 2200 g/ha [1, 18]: 100%
- inhibition at 2200 g/ha [1, 19]: 100%
- inhibition at 140 g/ha [1, 20]: 95%
- inhibition at 140 g/ha [1, 21]: 96%
- inhibition at 140 g/ha [1, 22]: 58%
- inhibition at 560 g/ha [1, 23]: 100%
- inhibition at 560 g/ha [1, 24]: 100%
- inhibition at 560 g/ha [1, 25]: 70%
- inhibition at 560 g/ha [1, 26]: 33%
- inhibition at 2200 g/ha [1, 27]: 100%
- inhibition at 2200 g/ha [1, 28]: 100%
- inhibition at 2200 g/ha [1, 29]: 95%
- inhibition at 2200 g/ha [1, 30]: 35%
- inhibition at 140 g/ha [1, 31]: 20%
- Fresh Weight [1, 20]: 0.20 Grams
- Fresh Weight [1, 21]: 0.17 Grams
- Fresh Weight [1, 22]: 1.74 Grams
- Fresh Weight [1, 31]: 3.26 Grams
- Fresh Weight [1, 23]: 0 Grams
- Fresh Weight [1, 24]: 0 Grams
- Fresh Weight [1, 25]: 1.21 Grams
- Fresh Weight [1, 26]: 2.73 Grams
- Fresh Weight [1, 27]: 0 Grams
- Fresh Weight [1, 28]: 0 Grams
- Fresh Weight [1, 29]: 0.20 Grams
- Fresh Weight [1, 30]: 2.65 Grams
- GR15 [2]: 2.0 Kg/Ha
- GR85 ([3]; in corn): 0.25 kg/ha
- S.F. (GR15/GR85) ([3]; in corn): 2.7
- GR85 ([3]; in soybeans): 0.25 kg/ha
- S.F. (GR15/GR85) ([3]; in soybeans): 4.5
- GR15 ([4]; Drummer silty clay, Table XVII A): > 2.2 Kg/Ha
- GR15 [4, 32]: 2.2 Kg/Ha
- GR15 ([4]; Drummer silty clay, Table XVII C): 2.0 Kg/Ha
- GR15 ([4]; Florida muck, Table XVII A): > 2.2 Kg/Ha
- GR15 ([4]; Florida muck, Table XVII B): 2.2 Kg/Ha
- GR15 ([4]; Florida muck, Table XVII C): > 2.2 Kg/Ha
- GR15 ([4]; Florida sand, Table XVII A): 2.0 Kg/Ha
- GR15 ([4]; Florida sand, Table XVII B): 2.2 Kg/Ha
- GR15 ([4]; Ray silt loam, Table XVII A): 1.1 Kg/Ha
- GR15 ([4]; Ray silt loam, Table XVII B): 2.2 Kg/Ha
- GR15 ([4]; Ray silt loam, Table XVII C): 2.0 Kg/Ha
- GR15 ([4]; Sarpy silty clay, Table XVII A): > 2.2 Kg/Ha
- GR15 ([4]; Sarpy silty clay, Table XVII B): 2.2 Kg/Ha
- GR15 ([4]; Sarpy silty clay, Table XVII C): > 2.2 Kg/Ha
- GR15 [4, 33]: 2.2 Kg/Ha
- GR15 ([4]; Wabash silty clay, Table XVII C): 2.2 Kg/Ha

Structure (SMILES): Cc1cccc(C(F)(F)F)c1N(COC(C)C)C(=O)CCl [Example 4, N--(isopropoxymethyl)-2'-trifluoromethyl-6'-methyl-2-chloroacetanilide]
- inhibition at 140 g/ha [1, 9]: 70%
- inhibition at 140 g/ha [1, 10]: 96%
- inhibition at 140 g/ha [1, 11]: 85%
- inhibition at 560 g/ha [1, 12]: 100%
- inhibition at 560 g/ha [1, 13]: 100%
- inhibition at 560 g/ha [1, 14]: 100%
- inhibition at 560 g/ha [1, 15]: 96%
- inhibition at 2200 g/ha [1, 16]: 100%
- inhibition at 2200 g/ha [1, 17]: 100%
- inhibition at 2200 g/ha [1, 18]: 100%
- inhibition at 2200 g/ha [1, 19]: 100%
- inhibition at 140 g/ha [1, 20]: 98%
- inhibition at 140 g/ha [1, 21]: 90%
- inhibition at 140 g/ha [1, 22]: 38%
- inhibition at 140 g/ha [1, 34]: 12%
- inhibition at 560 g/ha [1, 23]: 99%
- inhibition at 560 g/ha [1, 24]: 100%
- inhibition at 560 g/ha [1, 25]: 89%
- inhibition at 560 g/ha [1, 26]: 17%
- inhibition at 2200 g/ha [1, 27]: 100%
- inhibition at 2200 g/ha [1, 28]: 100%
- inhibition at 2200 g/ha [1, 29]: 92%
- inhibition at 2200 g/ha [1, 30]: 71%
- inhibition at 140 g/ha ([1]; Drummer silt clay, 0.14 Kg/Ha, rain 10.61 cm): 47%
- Fresh Weight [1, 20]: 0.01 Grams
- Fresh Weight [1, 21]: 0.41 Grams
- Fresh Weight [1, 22]: 2.77 Grams
- Fresh Weight [1, 34]: 3.62 Grams
- Fresh Weight [1, 23]: 0.02 Grams
- Fresh Weight [1, 24]: 0 Grams
- Fresh Weight [1, 25]: 0.44 Grams
- Fresh Weight [1, 26]: 3.41 Grams
- Fresh Weight [1, 27]: 0 Grams
- Fresh Weight [1, 28]: 0 Grams
- Fresh Weight [1, 29]: 0.31 Grams
- Fresh Weight [1, 30]: 1.18 Grams
- GR85 Rate [5]: 0.50 Kg/Ha
- selectivity factor (GR15/GR85) ([5]; in rape): > 2.2
- GR85 Rate [6]: 1.03 Kg/Ha
- selectivity factor (GR15/GR85) ([6]; in rape): > 1.1
- GR85 Rate [7]: > 1.12 Kg/Ha
- GR85 Rate [8]: > 1.12 Kg/Ha
- GR85 Rate ([3]; Table XV): 0.25 Kg/Ha
- selectivity factor (GR15/GR85) ([3]; in rape, Table XV): > 4.5
- GR15 [4, 32]: 2.2 Kg/Ha
- GR15 ([4]; Florida muck, Table XVII B): > 2.2 Kg/Ha
- GR15 ([4]; Florida sand, Table XVII B): 2.2 Kg/Ha
- GR15 ([4]; Ray silt loam, Table XVII B): 3.0 Kg/Ha
- GR15 ([4]; Sarpy silty clay, Table XVII B): 2.2 Kg/Ha
- GR15 [4, 33]: 3.0 Kg/Ha
